Measured values as given in patent US9539349B2, “Formulation, apparatus and method for stabilizing radiopharmaceuticals” (Siemens Medical Solutions USA, Inc., priority 2010, dated 2017).
Read-outs that look alike come from different tables or passages of the source.

Key:
[1] = Radiochemical purity / percent stability of aged radiopharmaceutical solutions by radio-analytical HPLC; settings: for % stability 2.25 hr: [F-18]BMS 747158-02 12 mCi/mL, 10 vol. % EtOH:water; for RCP % 1.5 hrs post dispensing / RCP % 4 hrs post dispensing: FLT; for % stability 4.0 hr: [F-18]FLT 126.3 mCi/mL (text: 103 mCi/mL); for % stability 5.5 hr: [F-18]FLT 127 mCi/mL; for % stability 3 hr: [F-18]HX4 16.2 mCi/mL
[2] = Hydrogen peroxide concentration by peroxide test strips; format: physicochemical
[3] = Excipient screen: protective factor (PF) for [F-18]FLT in argon sparged vials; settings: in the absence of oxygen, in the presence of argon
[4] = system: proximal renal tubes in kidneys; settings: rat, in vivo
[5] = system: proximal renal tubes in kidneys; settings: dog, in vivo

CC(C)(C)n1ncc(OCc2ccc(COCC[18F])cc2)c(Cl)c1=O [[F-18]BMS 747158-02]
% stability 2.25 hr ([1]; Air/O2 (before sparge)): 91% | % stability 2.25 hr ([1]; Argon (reformulated after sparge)): 12%

CC(C)[C@@H](C(=O)N[C@@H](Cc1ccc(OCC[18F])cc1)C(=O)O)n1cc(COc2ccc3nc(S(N)(=O)=O)sc3c2)nn1 [[F-18]VM4-037]
radiolytic stability ([1]; oxygen introduced into the sample vials): not undergo radiolysis | radiolytic stability ([1]; stored under an atmosphere of He): susceptible to radiolytical decomposition

Cc1cn([C@H]2C[C@H]([18F])[C@@H](CO)O2)c(=O)[nH]c1=O [[F-18]FLT]
stabilization by formulation ([1]; 8 vol. % EtOH:92 vol. % sodium phosphate (21 mM, pH=4.0-7.0) containing 0.01% (g/ml) maleic acid): very efficient at stabilizing | RCP % 1.5 hrs post dispensing ([1]; Air-purged vial): 100% | RCP % 4 hrs post dispensing ([1]; Air-purged vial): 100% | RCP % 1.5 hrs post dispensing ([1]; Argon purged vial): 62.5% | RCP % 4 hrs post dispensing ([1]; Argon purged vial): 38.5% | oxygen in finished product vial headspace at which FLT stability is improved ([1]; Greer and Adelphi vials): > 10 vol. % | radiochemical purity ([1]; [F-18]FLT 63.2 mCi/mL at EOS, dose vial sparged with Ar, after 1.5 hrs): 62.5% | radiochemical purity ([1]; [F-18]FLT 63.2 mCi/mL at EOS, dose vial sparged with Ar, after 4.0 hrs): 38.57% | radiochemical integrity ([1]; [F-18]FLT 63.2 mCi/mL at EOS, headspace of oxygen (syringe and sample vial), up to 4 hrs): remained radiochemically intact | % stability 2 hr ([1]; [F-18]FLT 82 mCi/mL, 8 vol. % EtOH:phosphate, 0.01% (g/ml) maleic acid + Air headspace, rt): 100% | % stability 3.25 hr ([1]; [F-18]FLT 118.7 mCi/mL, 8 vol. % EtOH:phosphate, maleic acid + Ar headspace): 37.9% | % stability 4.0 hr ([1]; 8 vol. % EtOH:phosphate, Ar, no maleic acid): 1.5% | % stability 4.0 hr ([1]; 8 vol. % EtOH:phosphate, maleic acid (0.1 mg/mL) and Ar): 88.7% | % stability 5.5 hr ([1]; 8 vol. % EtOH:phosphate, syringe sample, O2 (no headspace), no maleic acid): 19.68% | % stability 5.5 hr ([1]; 8 vol. % EtOH:phosphate, syringe sample, maleic acid + O2 (no headspace)): 97.13% | % stability 5.5 hr ([1]; 8 vol. % EtOH:phosphate, vial, Air headspace, no maleic acid): ≥ 98% | % stability 5.5 hr ([1]; 8 vol. % EtOH:phosphate, vial, maleic acid + Air headspace (rt)): ≥ 98% | radiochemical integrity ([1]; [F-18]FLT 129.5 mCi/mL at EOS, control dose vial with headspace of oxygen): remained radiochemically intact | radiochemical integrity ([1]; [F-18]FLT 129.5 mCi/mL at EOS, syringe with headspace of oxygen (20.95 vol. %)): remained radiochemically intact | radiochemical purity ([1]; [F-18]FLT 129.5 mCi/mL at EOS, syringe without headspace of oxygen, after 2.6 hrs): 66.7% | radiochemical purity ([1]; [F-18]FLT 129.5 mCi/mL at EOS, syringe without headspace of oxygen, after 3.8 hrs): 32.7% | % stability 3.5 hr ([1]; [F-18]FLT 197.1 mCi/mL, 8 vol. % EtOH:phosphate, dose vial, air/O2 only): 82.6% | stability (FIG. 2) ([1]; in the presence of argon without maleic acid): decomposes | stability (FIG. 1) ([1]; in the presence of argon without oxygen): decomposes | stability (FIG. 2) ([1]; in the presence of maleic acid in argon): stabilized | stability (FIG. 1) ([1]; in the presence of oxygen): stabilized | stability (FIG. 4) ([1]; in the presence of oxygen and maleic acid): further stabilized | stability (FIG. 4) ([1]; in the presence of oxygen, once the oxygen is consumed): decomposes | period of stability ([1]; oxygen and maleic acid formulation, in some instances): about 18 hours | strength up to which samples did not contain radiolyzed products ([1]; samples spiked with O2): up to 197 mCi/mL | hydrogen peroxide concentration ([2]; FLT sample 126.3 mCi/mL, containing maleic acid (argon)): 0 ppm | hydrogen peroxide concentration ([2]; FLT sample 126.3 mCi/mL, headspace of argon): 0 ppm | hydrogen peroxide concentration ([2]; FLT sample 127 mCi/mL, headspace of oxygen): 5 ppm | hydrogen peroxide concentration ([2]; FLT sample 127 mCi/mL, headspace of oxygen and maleic acid): 0.5-2.0 ppm

O=C(O)/C=C\C(=O)O [Maleic acid]
stabilization of [F-18]FLT against radiolysis [3]: highly stabilizing | predicted human dose equivalent for renal effect [4]: approximately 12.3 mg/kg | predicted human dose equivalent for renal effect, total dose [4]: 855 mg | predicted human dose equivalent for renal effect [5]: approximately 15 mg/kg | predicted human dose equivalent for renal effect, total dose [5]: 1000 mg

O=[N+]([O-])c1nccn1Cc1cn(C(CO)C[18F])nn1 (centres unmarked) [[F-18]HX4]
% stability 3 hr ([1]; 8 vol. % EtOH:phosphate (text: 10 vol. % EtOH:water), maleic acid + Argon): 8.66% | % stability 3 hr ([1]; 8 vol. % EtOH:phosphate (text: 10 vol. % EtOH:water), maleic acid + O2): 98.9% | % stability 3 hr ([1]; 8 vol. % EtOH:phosphate, Air (O2)): 94.06% | % stability 3 hr ([1]; 8 vol. % EtOH:phosphate, Argon): 85.6% | radiochemical integrity ([1]; [F-18]HX4 in 10 vol. % EtOH:water, headspace of oxygen, up to 4 hrs): remained radiochemically intact | radiochemical purity ([1]; [F-18]HX4 in 10 vol. % EtOH:water, sparged with Ar, after 1 hrs): 0.28% | radiochemical purity ([1]; [F-18]HX4 in 10 vol. % EtOH:water, sparged with Ar, after 4.0 hrs): 0%
